The text below walks through data of US6090945A, “Tetrahydro-beta-carbolines” (Eli Lilly and Company, priority 1998, dated 2000).

The target of one assay is 5-HT2 receptor (Rattus norvegicus, UniProt P14842). Description: 5-HT2 radioligand binding assay ([3H]ketanserin displacement). Details: species or system rat (Sprague-Dawley cerebral cortex).
Another assay addresses T1, 5-HT1c receptor (Bos taurus, UniProt A0AAA9SBU1).
T1 sequence (A0AAA9SBU1 33-457): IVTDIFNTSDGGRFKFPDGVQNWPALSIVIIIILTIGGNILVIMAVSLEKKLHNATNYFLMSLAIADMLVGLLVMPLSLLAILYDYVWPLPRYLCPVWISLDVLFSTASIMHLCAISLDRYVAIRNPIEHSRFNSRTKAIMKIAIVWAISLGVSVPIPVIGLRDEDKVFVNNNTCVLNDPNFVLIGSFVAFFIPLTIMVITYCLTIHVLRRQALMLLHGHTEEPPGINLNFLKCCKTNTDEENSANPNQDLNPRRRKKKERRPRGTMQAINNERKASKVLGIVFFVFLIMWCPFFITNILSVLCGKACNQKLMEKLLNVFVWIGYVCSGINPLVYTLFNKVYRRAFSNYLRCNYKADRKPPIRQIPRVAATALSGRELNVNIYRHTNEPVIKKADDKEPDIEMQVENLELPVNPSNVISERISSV
Description: 5-HT1c radioligand binding assay ([3H]mesulergine displacement). Conditions: read-out: 5HT1C IC50 (binding displacement); choroid plexus; tritiated mesulergine 2.0 nM; 37° C., 15 minutes.

Where [1] appears, read: rat cerebral cortex, tritiated ketanserin 1 nM, 37° C., read-out: 5HT2 IC50 (binding displacement).

pIC50: −log10 of the molar value. Where a name gives a salt, the structure may show the parent alone. Read-outs that look alike come from different tables or passages of the source. A value given as a limit tells only on which side of the number the result lay.

5-HT2 receptor, sequence (P14842 whole entry): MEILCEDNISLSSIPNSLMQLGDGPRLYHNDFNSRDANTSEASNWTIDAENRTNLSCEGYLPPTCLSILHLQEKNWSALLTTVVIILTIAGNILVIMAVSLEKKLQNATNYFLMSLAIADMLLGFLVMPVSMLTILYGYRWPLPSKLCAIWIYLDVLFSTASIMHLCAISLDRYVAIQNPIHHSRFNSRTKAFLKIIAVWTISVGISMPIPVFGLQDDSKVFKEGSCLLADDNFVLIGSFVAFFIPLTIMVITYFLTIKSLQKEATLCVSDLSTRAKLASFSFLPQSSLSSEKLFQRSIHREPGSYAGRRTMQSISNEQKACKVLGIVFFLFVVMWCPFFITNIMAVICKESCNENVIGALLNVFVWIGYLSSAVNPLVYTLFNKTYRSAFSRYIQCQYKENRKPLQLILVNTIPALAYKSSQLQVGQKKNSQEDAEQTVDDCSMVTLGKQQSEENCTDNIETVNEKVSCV
Description for 5-HT1c receptor: I. Assay for 5-HT1c Affinity
Beef brain was removed immediately after slaughter, and choroid plexus were dissected over ice. […] Tissues were homogenized in 9 volumes of 0.32 mol/L sucrose and centrifuged at 1,000×g for 10 minutes. The supernatant was centrifuged at 17,000×g for 20 minutes. The pellet was suspended in 100 volumes of 50 mM Tris-HCl (pH7.4), incubated at 37° C. for 10 minutes and centrifuged at 50,000×g for 10 minutes, and the process was repeated three times. The final pellets were frozen at -70° C. and used within 2 weeks. Pellets were rehydrated with physiological buffer prior to use.
The reactions were terminated by rapid filtration, (Brandel Cell Harvestor), through Whatman GF/B glass filters that had been presoaked in Tris buffer pH 7.4. The filters were then washed 2 times with 5 ml of ice cold Tris buffer pH 7.4. Washed filters were placed in scintillation vials and 10 ml RedySolv, (Brandel), was added and samples were counted in a Searle D-300 beta counter. Means and standard error statistics were calculated for triplicate experimental determinations in certain cases. Mean values were obtained from three or more separate determinations. The incubation time for the reaction mixture was 15 minutes at 37° C.

In general, pIC50 refers to the negative decadic logarithm of the IC50, by convention in mol/L. On to `CCc1ccc2[nH]c3c(c2c1)CCN[C@H]3[C@H](C)c1ccc(OC)c(OC)c1` (relative stereo) [Example 42, (±) 6-ethyl-1-[(3,4-dimethoxyphenyl)-1-ethyl]-1,2,3,4-tetrahydro-9H-pyrido[3,4-b]indole (Z)-2-butenedioate], for which the figures for the pIC50 at 5-HT2 receptor (setting [1]) and at 5-HT1c receptor were 6.68 and 7.07, respectively.

With `COc1ccc(CC2NCCc3c2[nH]c2c(C)cccc32)cc1OC` (stereo not shown) [Example 1, 8-methyl-1-[(3,4-dimethoxyphenyl)methyl]-1,2,3,4-tetrahydro-9H-pyrido[3,4-b]indole], the pIC50 on 5-HT2 receptor (setting [1]) was 6.51; on 5-HT1c receptor, 6.67. Take `COc1ccc(CC2NCCc3c2[nH]c2c(Br)cccc32)cc1OC` (stereo not shown) [Example 2, 8-bromo-1-[(3,4-dimethoxyphenyl)methyl]-1,2,3,4-tetrahydro-9H-pyrido[3,4-b]indole hydrochloride]: the pIC50 at 5-HT2 receptor is 7.17; on 5-HT1c receptor it was 7.47. Take `COc1ccc(CC2NCCc3c2[nH]c2c(OC)cccc32)cc1OC` (stereo not shown) [Example 5, 8-methoxy-1-[(3,4-dimethoxyphenyl)methyl]-1,2,3,4-tetrahydro-9H-pyrido[3,4-]indole]: the results for the pIC50 at 5-HT2 receptor (setting [1]) and on 5-HT1c receptor were 6.59 and 6.63, respectively. `COc1ccc(CC2NCCc3c2[nH]c2ccc(C(C)(C)C)cc32)cc1OC` (stereo not shown) [Example 8, 6-(1,1-dimethylethyl)-1-[(3,4-dimethoxyphenyl)methyl]1,2,3,4-tetrahydro-1-9H-pyrido-[3,4b]indole hydrochloride]: the pIC50 at 5-HT2 receptor (setting [1]) is less than 7.00; on 5-HT1c receptor it was 7.66. As for `COc1ccc(CC2NCCc3c2[nH]c2ccc(C)c(F)c32)cc1OC` (stereo not shown) [Example 9, 5-fluoro-6-methyl-1-[(3,4-dimethoxyphenyl)-methyl]-1,2,3,4-tetrahydro-9H-pyrido[3,4-b]indole], the pIC50 at 5-HT2 receptor (setting [1]) is 6.85; on 5-HT1c receptor, 7.74. `COc1ccc(CC2NCCc3c2[nH]c2ccc(C4CCCCC4)cc32)cc1OC` (stereo not shown) [Example 11, 6-cyclohexyl-1-[(3,4-dimethoxyphenyl)-methyl]-1,2,3,4-tetrahydro-9H-pyrido[3,4-b]indole hydrochloride]: the pIC50 on 5-HT2 receptor was less than 6.00; at 5-HT1c receptor, 6.44.

As to `COc1ccc(CC2NCCc3c2[nH]c2c(C)ccc(C)c32)cc1OC` (stereo not shown) [Example 12, 5,8-dimethyl-1,2,3,4-tetrahydro-1-[(3,4-dimethoxyphenyl)methyl]-9H-pyrido[3,4b]indole hydrochloride], the pIC50 on 5-HT2 receptor (setting [1]) is less than 7.00; on 5-HT1c receptor, 7.82. In the case of `COc1ccc(CC2NCCc3c2[nH]c2c(C)cc(C)cc32)cc1OC` (stereo not shown) [Example 14, 6,8-dimethyl-1,2,3,4-tetrahydro-1-[(3,4-dimethoxyphenyl)methyl]-9H-pyrido[3,4b]indole hydrochloride], the pIC50 is less than 7.00 at 5-HT2 receptor (setting [1]) and 7.47 on 5-HT1c receptor. On to `CCc1ccc2[nH]c3c(c2c1)CCNC3Cc1ccc(OC)c(OC)c1` (stereo not shown) [Example 17, 6-ethyl-1,2,3,4-tetrahydro-1-[(3,4-dimethoxyphenyl)methyl]-9H-pyrido[3,4b]indole], for which the figures for the negative logarithm of the IC50 (pIC50) at 5-HT2 receptor (setting [1]) and on 5-HT1c receptor were 6.54 and 7.14, respectively. As to `COc1ccc(CC2NCCc3c2[nH]c2ccc(Br)cc32)cc1OC` (stereo not shown) [Example 18, 6-bromo-1,2,3,4-tetrahydro-1-[(3,4-dimethoxyphenyl)methyl]-9H-pyrido[3,4b]indole], the pIC50 on 5-HT2 receptor (setting [1]) was 6.54; at 5-HT1c receptor, 6.92. Take `COc1ccc(CC2NCCc3c2[nH]c2c(C)c(C)ccc32)cc1OC` (stereo not shown) [Example 19, 7,8-dimethyl-1,2,3,4-tetrahydro-1-[(3,4-dimethoxyphenyl)methyl]-9H-pyrido[3,4b]indole hydrochloride]: the figures for the pIC50 at 5-HT2 receptor (setting [1]) and at 5-HT1c receptor were less than 7.00 and 7.68, respectively. For the compound `COc1ccc(CC2NCCc3c2[nH]c2ccc(C)cc32)cc1OC` (stereo not shown) [Example 20, 6-methyl-1,2,3,4-tetrahydro-1-[(3,4-dimethoxyphenyl)methyl]-9H-pyrido[3,4b]indole hydrochloride], the pIC50 was 6.89 on 5-HT2 receptor (setting [1]) and 7.00 on 5-HT1c receptor.

Regarding `COc1cc(CC2NCCc3c2[nH]c2ccc(C)cc32)cc(OC)c1OC` (stereo not shown) [Example 21, 6-methyl-1-[(3,4,5-trimethoxyphenyl)-methyl]-1,2,3,4-tetrahydro-9H-pyrido[3,4-b]indole hydrochloride], the pIC50 on 5-HT2 receptor is 5.97; on 5-HT1c receptor, 7.08. Take `COc1ccccc1CC1NCCc2c1[nH]c1ccc(C)cc21` (stereo not shown) [Example 23, 6-methyl-1-[(2-methoxyphenyl)methyl]-1,2,3,4-tetrahydro-9H-pyrido[3,4-b]indole hydrochloride]: the pIC50 at 5-HT1c receptor is 7.24. Take `COc1ccc(CC2NCCc3c2[nH]c2ccc(C)cc32)c(OC)c1` (stereo not shown) [Example 24, 6-methyl-1-[(2,4-dimethoxyphenyl)methyl]-1,2,3,4-tetrahydro-9H-pyrido[3,4-b]indole hydrochloride]: the pIC50 at 5-HT2 receptor is 7.13; on 5-HT1c receptor it was 7.77. Take `COc1ccc(OC)c(CC2NCCc3c2[nH]c2ccc(C)cc32)c1` (stereo not shown) [Example 25, 6-methyl-1-[(2,5-dimethoxyphenyl)methyl]-1,2,3,4-tetrahydro-9H-pyrido[3,4-b]indole hydrochloride]: the pIC50 at 5-HT1c receptor was 7.10. With `COc1cc(OC)c(OC)cc1CC1NCCc2c1[nH]c1ccc(C)cc21` (stereo not shown) [Example 26, 6-methyl-1-[(2,4,5-trimethoxyphenyl)-methyl]-1,2,3,4-tetrahydro-9H-pyrido[3,4-b]indole hydrochloride], at 5-HT1c receptor, the pIC50 was 7.28.

In the case of `COc1cc(CC2NCCc3c2[nH]c2ccc(C)cc32)cc([N+](=O)[O-])c1OC` (stereo not shown) [Example 28, 6-methyl-1-[(3,4-dimethoxy-5-nitrophenyl)-methyl]-1,2,3,4-tetrahydro-9H-pyrido[3,4-b]indole hydrochloride], the pIC50 at 5-HT2 receptor is 6.00; at 5-HT1c receptor, 6.39. With `COc1cc(CC2NCCc3c2[nH]c2ccc(C)cc32)cc(I)c1OC` (stereo not shown) [Example 29, 6-methyl-1-[(3-iodo-4,5-dimethoxy-phenyl)-methyl]-1,2,3,4-tetrahydro-9H-pyrido[3,4-b]indole], the negative logarithm of the IC50 (pIC50) is 6.00 at 5-HT2 receptor (setting [1]) and 6.59 on 5-HT1c receptor. On to `COc1cc(CC2NCCc3c2[nH]c2ccc(C)cc32)cc(N)c1OC` (stereo not shown) [Example 30, 6-methyl-1-[(3,4-dimethoxy-5-amino-phenyl)-methyl]-1,2,3,4-tetrahydro-9H-pyrido[3,4-b]indole dihydrochloride], for which the negative logarithm of the IC50 (pIC50) on 5-HT2 receptor was 6.10; at 5-HT1c receptor, 6.65. For the compound `CCCOc1ccc(CC2NCCc3c2[nH]c2ccc(C)cc32)cc1OC` (stereo not shown) [Example 31, 6-methyl-1-[(3-methoxy-4-propoxyphenyl)-methyl]-1,2,3,4-tetrahydro-9H-pyrido[3,4-b]indole], the figures for the pIC50 on 5-HT2 receptor (setting [1]) and on 5-HT1c receptor were 6.41 and 6.97, respectively. In the case of `COc1ccc(CC2NCCc3c2[nH]c2ccc(C)cc32)cc1F` (stereo not shown) [Example 34, 6-methyl-1-[(3-fluoro-4-methoxyphenyl)-methyl]-1,2,3,4-tetrahydro-9H-pyrido[3,4-b]indole hydrochloride], the values for the pIC50 at 5-HT2 receptor and at 5-HT1c receptor were 6.60 and 7.02, respectively. Consider `Cc1ccc2[nH]c3c(c2c1)CCNC3Cc1ccc(C)c(C)c1` (stereo not shown) [Example 35, 6-methyl-1-[(3,4-dimethylphenyl)methyl]-1,2,3,4-tetrahydro-9H-pyrido[3,4-b]indole hydrochloride], for which the pIC50 at 5-HT2 receptor was less than 7.00; on 5-HT1c receptor, 7.21.

As to `COc1ccc(CC2NCCc3c2[nH]c2ccc(C)cc32)c(Cl)c1OC` (stereo not shown) [Example 36, 6-methyl-1-[(2-chloro-3,4-dimethoxyphenyl)-methyl]-1,2,3,4-tetrahydro-9H-pyrido[3,4-b]indole hydrochloride], the pIC50 at 5-HT2 receptor was 7.00; at 5-HT1c receptor it was 7.24.

For `COc1c(O)ccc(CC2NCCc3c2[nH]c2ccc(C)cc32)c1Cl` (stereo not shown) [Example 37, 6-methyl-1-[(2-chloro-3-methoxy-4-hydroxyphenyl)methyl]-1,2,3,4-tetrahydro-9H-pyrido[3,4-b]-indole hydrochloride], the figures for the pIC50 at 5-HT2 receptor and on 5-HT1c receptor were 7.00 and 7.54, respectively. Regarding `COc1ccc(CC2NCCc3c2[nH]c2ccc(C)c(F)c32)c(Cl)c1OC` (stereo not shown) [Example 38, 5-fluoro-6-methyl-1-[(2-chloro-3,4-dimethoxyphenyl)methyl]-1,2,3,4-tetrahydro-9H-pyrido[3,4-b]indole hydrochloride], the negative-log IC50 (pIC50) on 5-HT2 receptor was less than 7.00; on 5-HT1c receptor it was 7.96.

For `Cc1ccc2[nH]c3c(c2c1)CCNC3CC1CCCCC1` (stereo not shown) [Example 39, 6-methyl-1-(cyclohexylmethyl)-1,2,3,4-tetrahydro-9H-pyrido[3,4-b]indole hydrochloride], the results for the pIC50 on 5-HT2 receptor and on 5-HT1c receptor were 6.21 and 6.30, respectively. On to `COc1ccc(CC2c3[nH]c4ccc(C)cc4c3CCN2C)c(Cl)c1OC` (stereo not shown) [Example 44, 2,6-dimethyl-1-[(2-chloro-3,4-dimethoxyphenyl)methyl]-1,2,3,4-tetrahydro-9H-pyrido[3,4-b]indole hydrochloride], for which the pIC50 at 5-HT1c receptor is 6.41.

As for `COc1ccc(CC2c3[nH]c4ccc(C(C)C)cc4c3CCN2C)cc1OC` (stereo not shown) [Example 45, 2-methyl-6-(1-methylethyl)-1,2,3,4-tetrahydro-1-[(3,4-dimethoxyphenyl)methyl]-9H-pyrido-[3,4b]indole maleate], the pIC50 on 5-HT1c receptor was 6.34.
